# Target: T1, human GPR119 (hGPR119) (Homo sapiens, UniProt Q8TDV5)
# T1 construct: expressed in transfected cells
# T1 sequence (Q8TDV5 1-335): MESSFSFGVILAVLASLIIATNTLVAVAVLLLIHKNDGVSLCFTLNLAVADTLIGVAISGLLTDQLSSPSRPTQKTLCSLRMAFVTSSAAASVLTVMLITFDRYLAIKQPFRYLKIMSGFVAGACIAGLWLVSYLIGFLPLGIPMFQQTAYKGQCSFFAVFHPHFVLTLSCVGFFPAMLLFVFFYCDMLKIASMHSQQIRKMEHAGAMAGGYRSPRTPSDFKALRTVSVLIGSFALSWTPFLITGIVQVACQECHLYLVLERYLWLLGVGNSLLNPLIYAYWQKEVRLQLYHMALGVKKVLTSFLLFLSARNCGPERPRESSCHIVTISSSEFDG
# Assay: cAMP accumulation assay (cAMP Gs dynamic HTRF kit)
# Type: cell-based
# Conditions: CHO-K1 cells stably expressing hGPR119, 4-parameter fit; for Emax: 1 h, % activity normalized to Max/Min controls; for EC50: cAMP accumulation
# Description: CHO-K1 cells stably expressing human GPR119 (hGPR119) were prepared by transfection of a GPR119-carrying plasmid using Lipofectamine 2000 (following manufacturer instructions). A stable cell line was established using the limiting dilution method with geneticine selection. Assay-ready frozen (ARF) cells were prepared and used throughout the study.
# The assay was performed in a 384-well plate format using the cAMP Gs dynamic assay kit from Cisbio. ARF cells expressing hGPR119 were thawed, washed and then resuspended in cAMP stimulation buffer at a cell density of 1.1×10^6 cells/mL. Cells were plated at a density of ˜10,000 cells/well (9 μL/well). Dose response curves for the tested compounds were prepared in a cAMP stimulation buffer, containing 0.1% Tween 80 at 4 fold the final concentration. The compounds were then transferred to the cell plates using BRAVO (3 μL/well) and the plates were incubated for 60 minutes at 37° C./5% CO2. Detection buffer (10 μL, prepared as described in the cAMP Gs dynamic kit) were added to each well, and the plates were incubated at ambient temperature for 1 hr.
# RT-FRET was measured using a ClarioSTAR plate reader, calculating the ratio between emissions at 665 nm and 620 nm (HTRF ratio). The HTRF ratio for positive (Max) and negative (Min) controls were used to normalize HTRF data and generate values for % activity. EC50 and Max activity values were determined using a standard 4-parameter fit.
Structure (SMILES),Emax,EC50
"NS(=O)(=O)CCCNC(=O)Cc1ccc(OCCCC2CCN(c3ncc(Cl)cn3)CC2)cc1F [Example 13, 2-[4-[3-[1-(5-chloropyrimidin-2-yl)-4-piperidyl]propoxy]-2-fluoro-phenyl]-N-(3-sulfamoylpropyl)acetamide]",≥ 130%,≤ 100 nM
"NS(=O)(=O)CCCCNC(=O)Cc1ccc(OCCCC2CCN(c3ncc(Cl)cn3)CC2)cc1F [Example 14, 2-[4-[3-[1-(5-chloropyrimidin-2-yl)-4-piperidyl]propoxy]-2-fluoro-phenyl]-N-(4-sulfamoylbutyl)acetamide]",≥ 130%,≤ 100 nM
"CCc1cnc(N2CCC(CCCOc3ccc(CC(=O)NCCC[N+](C)(C)C)c(F)c3)CC2)nc1 [Example 15, 3-[[2-[4-[3-[1-(5-ethylpyrimidin-2-yl)-4-piperidyl]propoxy]-2-fluoro-phenyl]acetyl]amino]propyl-trimethyl-ammonium]",100 to 130%,100 to 1000 nM
"O=C(Cc1ccc(OCCCC2CCN(c3ncc(Cl)cn3)CC2)cc1F)NCCCCCC(=O)NC(CO)CO [Example 17, 6-[[2-[4-[3-[1-(5-chloropyrimidin-2-yl)-4-piperidyl]propoxy]-2-fluoro-phenyl]acetyl]amino]-N-[2-hydroxy-1-(hydroxymethyl)ethyl]hexanamide]",≥ 130%,100 to 1000 nM
"O=C(Cc1ccc(OCCCC2CCN(c3ncc(Cl)cn3)CC2)cc1F)NCCCCCC(=O)NC(CO)(CO)CO [Example 18, 6-[[2-[4-[3-[1-(5-chloropyrimidin-2-yl)-4-piperidyl]propoxy]-2-fluoro-phenyl]acetyl]amino]-N-[2-hydroxy-1,1-bis(hydroxymethyl)ethyl]hexanamide]",100 to 130%,100 to 1000 nM
"O=C(Cc1ccc(OCCCC2CCN(c3ncc(Cl)cn3)CC2)cc1F)NCCC(=O)NC(CO)CO [Example 19, 3-[[2-[4-[3-[1-(5-chloropyrimidin-2-yl)-4-piperidyl]propoxy]-2-fluoro-phenyl]acetyl]amino]-N-[2-hydroxy-1-(hydroxymethyl)ethyl]propanamide]",100 to 130%,100 to 1000 nM
"O=C(Cc1ccc(OCCCC2CCN(c3ncc(Cl)cn3)CC2)cc1F)NCCC(=O)NC(CO)(CO)CO [Example 20, 3-[[2-[4-[3-[1-(5-chloropyrimidin-2-yl)-4-piperidyl]propoxy]-2-fluoro-phenyl]acetyl]amino]-N-[2-hydroxy-1,1-bis(hydroxymethyl)ethyl]propanamide]",≥ 130%,100 to 1000 nM
"O=C(Cc1ccc(OCCCC2CCN(c3ncc(Cl)cn3)CC2)cc1F)NCCCC(=O)NC(CO)CO [Example 21, 4-[[2-[4-[3-[1-(5-chloropyrimidin-2-yl)-4-piperidyl]propoxy]-2-fluoro-phenyl]acetyl]amino]-N-[2-hydroxy-1-(hydroxymethyl)ethyl]butanamide]",≥ 130%,100 to 1000 nM
"O=C(Cc1ccc(OCCCC2CCN(c3ncc(Cl)cn3)CC2)cc1F)NCCCC(=O)NC(CO)(CO)CO [Example 22, 4-[[2-[4-[3-[1-(5-chloropyrimidin-2-yl)-4-piperidyl]propoxy]-2-fluoro-phenyl]acetyl]amino]-N-[2-hydroxy-1,1-bis(hydroxymethyl)ethyl]butanamide]",≥ 130%,100 to 1000 nM
"O=C(Cc1ccc(OCCCC2CCN(c3ncc(Cl)cn3)CC2)cc1F)NCCCCC(=O)NC(CO)CO [Example 23, 5-[[2-[4-[3-[1-(5-chloropyrimidin-2-yl)-4-piperidyl]propoxy]-2-fluoro-phenyl]acetyl]amino]-N-[2-hydroxy-1-(hydroxymethyl)ethyl]pentanamide]",≥ 130%,100 to 1000 nM
"O=C(Cc1ccc(OCCCC2CCN(c3ncc(Cl)cn3)CC2)cc1F)NCCCCC(=O)NC(CO)(CO)CO [Example 24, 5-[[2-[4-[3-[1-(5-chloropyrimidin-2-yl)-4-piperidyl]propoxy]-2-fluoro-phenyl]acetyl]amino]-N-[2-hydroxy-1,1-bis(hydroxymethyl)ethyl]pentanamide]",≥ 130%,100 to 1000 nM
"O=C(Cc1ccc(OCCCC2CCN(c3ncc(Cl)cn3)CC2)cc1F)NCCCCCC(=O)N1C[C@H](O)[C@@H](O)C1 [Example 25, 2-[4-[3-[1-(5-chloropyrimidin-2-yl)-4-piperidyl]propoxy]-2-fluoro-phenyl]-N-[6-[(3S,4S)-3,4-dihydroxypyrrolidin-1-yl]-6-oxo-hexyl]acetamide]",≥ 130%,100 to 1000 nM
"O=C(NC(CO)(CO)CO)C1CN(C(=O)Cc2c(F)cc(OCCCC3CCN(c4ncc(Cl)cn4)CC3)cc2F)C1 [Example 26, 1-[2-[4-[3-[1-(5-chloropyrimidin-2-yl)-4-piperidyl]propoxy]-2,6-difluoro-phenyl]acetyl]-N-[2-hydroxy-1,1-bis(hydroxymethyl)ethyl]azetidine-3-carboxamide]",≥ 130%,≤ 100 nM
"COCc1cnc(N2CCC(CCCOc3ccc(CC(=O)N4CC(C(=O)NCCNC(=O)NC(CO)(CO)CO)C4)c(F)c3)CC2)nc1 [Example 27, 1-[2-[2-fluoro-4-[3-[1-[5-(methoxymethyl)pyrimidin-2-yl]-4-piperidyl]propoxy]phenyl]acetyl]-N-[2-[[2-hydroxy-1,1-bis (hydroxymethyl)ethyl]carbamoylamino]ethyl]azetidine-3-carboxamide]",100 to 130%,100 to 1000 nM
"O=C(NC(CO)CO)C1CN(C(=O)Cc2ccc(OCCCC3CCN(c4ncc(Cl)cn4)CC3)cc2F)C1 [Example 28, 1-[2-[4-[3-[1-(5-chloropyrimidin-2-yl)-4-piperidyl]propoxy]-2-fluoro-phenyl]acetyl]-N-[2-hydroxy-1-(hydroxymethyl)ethyl]azetidine-3-carboxamide]",100 to 130%,100 to 1000 nM
"O=C(NCC(O)(CO)CO)C1CN(C(=O)Cc2ccc(OCCCC3CCN(c4ncc(Cl)cn4)CC3)cc2F)C1 [Example 30, 1-[2-[4-[3-[1-(5-chloropyrimidin-2-yl)-4-piperidyl]propoxy]-2-fluoro-phenyl]acetyl]-N-[2,3-dihydroxy-2-(hydroxymethyl)propyl]azetidine-3-carboxamide]",100 to 130%,≤ 100 nM
"O=C(CC1CN(C(=O)Cc2ccc(OCCCC3CCN(c4ncc(Cl)cn4)CC3)cc2F)C1)NC(CO)(CO)CO [Example 32, 2-[1-[2-[4-[3-[1-(5-chloropyrimidin-2-yl)-4-piperidyl]propoxy]-2-fluoro-phenyl]acetyl]azetidin-3-yl]-N-[2-hydroxy-1,1-bis(hydroxymethyl)ethyl]acetamide]",100 to 130%,100 to 1000 nM
"O=C(CC1CN(C(=O)Cc2ccc(OCCCC3CCN(c4ncc(Cl)cn4)CC3)cc2F)C1)NCC(O)(CO)CO [Example 33, 2-[1-[2-[4-[3-[1-(5-chloropyrimidin-2-yl)-4-piperidyl]propoxy]-2-fluoro-phenyl]acetyl]azetidin-3-yl]-N-[2,3-dihydroxy-2-(hydroxymethyl)propyl]acetamide]",≥ 130%,100 to 1000 nM
"O=C(CC1CN(C(=O)Cc2c(F)cc(OCCCC3CCN(c4ncc(Cl)cn4)CC3)cc2F)C1)NCC(O)(CO)CO [Example 34, 2-[1-[2-[4-[3-[1-(5-chloropyrimidin-2-yl)-4-piperidyl]propoxy]-2,6-difluoro-phenyl]acetyl]azetidin-3-yl]-N-[2,3-dihydroxy-2-(hydroxymethyl)propyl]acetamide]",≥ 130%,≤ 100 nM

# — US20230061736A1, “GPR119 AGONISTS” (Kallyope, Inc., priority 2019, published 2023)
